# Laboratory results: patent publication US20240342148A1, “METHODS OF TREATING FACIOSCAPULOHUMERAL MUSCULAR DYSTROPHY WITH LOSMAPIMOD” (Fulcrum Therapeutics, Inc., priority 2021, published 2024)
# Where “and” joins values, the source holds several entries; their conditions need not be identical. Identical values can stand only once.
# Tests used:
# [1] = Muscle losmapimod concentrations in needle biopsies; format: in vivo; conditions: human, po, 15 mg BID, 15 mg orally BID
# Method: Muscle needle biopsies were performed using the Bergstrom needle or fine needle at D1 and Wk16, or Wk36 if the muscle biopsy could not be performed at Wk16. The choice of the muscle(s) to be biopsied was determined by the investigator, informed by MRI taken during screening. Only those STIR+ muscles with 10%≤MFF≤40% were eligible for biopsy. […] The bilateral vastus lateralis, vastus medialis, lateral gastrocnemius, medial gastrocnemius, and tibialis anterior were evaluated for eligibility by MRI using a central reader. The Wk16 or Wk36 muscle needle biopsies were performed in the same approximate location as the pretreatment (D1) muscle biopsy. At baseline, MRI fiducials were placed in order to identify the location for the needle biopsy. Coordinates in reference to the closest fiducial defined the location for the muscle biopsy. […] Approximately 15-40 mg of tissue was obtained at each biopsy and frozen in liquid nitrogen within 60 seconds after excision and stored at −80° C. (SciSafe Inc. Billerica, MA, USA) until analysis.
# Plasma and muscle losmapimod concentrations were measured by 2 validated bioanalytical high-performance liquid chromatography methods by PPD, USA (PPD 2019).
# [2] = test system: DUX4-regulated gene transcripts; assay: DUX4-regulated transcript analysis by RT-qPCR in muscle biopsies (primary endpoint); format: in vivo, human; conditions: log 2 scale
# Method: All efficacy analyses were performed using the full analysis set (FAS), according to the randomized treatment group. The primary endpoint, change from baseline in DUX4 activity (DUX4 Score 1), was analyzed using the analysis of covariance approach, with treatment group and FSHD repeat number category (1 to 3 repeats versus 4 to 9 repeats) as fixed effects, and baseline DUX4 Score 1 as a covariate. Multiplicity adjustment was not performed, as the primary endpoint was not met.
# Muscle needle biopsies were performed using the Bergstrom needle or fine needle at D1 and Wk16, or Wk36 if the muscle biopsy could not be performed at Wk16. The choice of the muscle(s) to be biopsied was determined by the investigator, informed by MRI taken during screening. […] The bilateral vastus lateralis, vastus medialis, lateral gastrocnemius, medial gastrocnemius, and tibialis anterior were evaluated for eligibility by MRI using a central reader. […]
# The muscle tissue collected at each muscle needle biopsy (D1 and Wk16 or Wk36) was analyzed for DUX4 activity using a molecular panel of DUX4-regulated gene transcripts (CCNA1, KHDC1L, MBD312, PRAMEF6, SLC34A2 and ZSCAN4, with TBP, HMBS, CDKN1B as reference genes). Raw Cycle Thresholds (Cts) from quantitative polymerase chain reaction (qPCR) were determined for DUX4 regulated genes using a validated assay (Fluidigm). […]
# subjects with FSHD [3] = assay: Patients' Global Impression of Change (PGIC); format: in vivo, human; conditions: Wk48
# Method: The Patients' Global Impression of Change (PGIC) Questionnaire was administered at every visit after baseline. Subjects were asked to rate their overall status since the start of the study on a scale from 1 (very much improved) to 7 (very much worse). The PGIC scale has been validated in several other indications and is recommended by the FDA for use as a meaningful measure of within-patient change.
# subjects with FSHD [4] = assay: Reachable workspace (RWS) relative surface area, RCT; format: in vivo, human
# Method: Continuous secondary and exploratory efficacy endpoints with 2 or more postbaseline follow-ups were analyzed using a mixed-effects model for repeated measures (MMRM), with change from baseline as the dependent variable, and treatment group, visit, treatment group-by-visit interaction, and FSHD repeat number category as fixed effects, and baseline value as a covariate. An unstructured covariance matrix was used to model the correlations among repeated measurements within each subject. The Kenward-Roger approximation was used to estimate denominator degrees of freedom. The RWS RSA score was also analyzed using a linear mixed-effects model, with treatment group as a fixed effect, and intercept, time and treatment group-by-time interaction as random effects, and with adjustment for FSHD repeat number category and region (USA, Canada, and EU). An unstructured covariance matrix was used. The RWS was performed at all visits, except for Week 16. It uses a single, 3D sensor-based system (Microsoft […]) that can unobtrusively detect subjects' RWS and reflects individual global upper extremity (UE) function, including shoulder and proximal arm. RWS has high reliability, repeatability, face validity, feasibility, sensitivity to change, and promise as a clinical outcome assessment (COA) for FSHD and other neuromuscular disorders. During the evaluation, patients were seated in front of the Microsoft […] sensor and underwent a standardized UE movement protocol while looking at a TV monitor. The evaluation was performed with and without 500 g weights two times per visit. All sites were provided and trained with the same standardized software and hardware by the sponsor. A central reader was responsible for training, quality control, data analysis, and standardization of the RWS across all sites in the study.
# subjects with FSHD [5] = assay: Timed Up and Go (TUG); format: in vivo, human; conditions: nonsignificant
# Method: (§1) TUG assessments were performed at all visits, except for Wk16. The TUG test is a simple test that is used to assess a subject's mobility and requires both static and dynamic balance. TUG is a validated instrument that measures the time that a person takes to rise from a chair, walk 3 meters, turn around, walk back to the chair, and sit down. Subjects used their regular footwear, and their customary walking aid (no walkers allowed). Patients were also timed in a modified test (FSHD TUG), where they started from a supine position, then sat up, completed the TUG, and lay down again.
# subjects with FSHD [6] = assay: FSHD-TUG; design: species or system human; conditions: in vivo
# Method: as §1
# subjects with FSHD [7] = assay: Motor Function Measure Domain 1 (MFM); design: species or system human; conditions: in vivo
# Method: MFM domain 1 assessments were performed at all visits, except for those on Wk4 and Wk16. The MFM scale assesses the severity of motor deficit. Domain 1 of the MFM provides an assessment of functional impairment for standing and transfers.
# subjects with FSHD [8] = assay: Safety and tolerability in the RCT; format: in vivo, human; conditions: 15 mg BID up to 48 weeks
# Method: All safety analyses were performed using the safety analysis set based on as-treated treatment group. Safety analyses included summaries of TEAEs, clinical laboratory, vital signs and ECGs.
structure (smiles),measurement,setting,value
"Cc1c(F)cc(C(=O)NC2CC2)cc1-c1ccc(C(=O)NCC(C)(C)C)cn1 [losmapimod, 6-(5-cyclopropylcarbamoyl-3-fluoro-2-methyl-phenyl)-N-(2,2-dimethylpropyl-)-nicotinamide]",concentration at 16 weeks,"[1]; Wk16 biopsy, read-out: Concentrations in muscles at Wk16",61 ± 7.7 ng/g
same,concentration at 36 weeks,"[1]; Wk36 biopsy, read-out: Concentrations in muscles at Wk36",91.1 ± 10.7 ng/g
same,"Change in DUX4 activity, difference losmapimod vs placebo","[2]; 95% CI −1.04, 1.89, p=0.56",0.43
same,Change from baseline in DUX4 activity,[2]; combined Wk16 or Wk36 muscle biopsies,0.83
same,Patients reporting feeling very much worse on PGIC (6-7 in Likert scale),subjects with FSHD [3],No losmapimod treated patients
same,Patients reporting improvement on PGIC (1-3 in Likert scale),subjects with FSHD [3],27.5% and ~20%
same,PGIC difference compared to placebo,"subjects with FSHD [3]; 1-7 Likert scale, p=0.02",0.58
same,"RSA change, dominant arm",subjects with FSHD [4]; 0-1.25 scale,0.019
same,"RSA change, non-dominant arm",subjects with FSHD [4]; 0-1.25 scale,0.021
same,"RSA difference vs placebo, non-dominant arm","subjects with FSHD [4]; 0-1.25 scale, 95% CI 0.0007, 0.09, p<0.05",0.045
same,"RSA difference vs placebo, dominant arm","subjects with FSHD [4]; 0-1.25 scale, 95% CI 0.017, 0.118, p=0.01",0.067
same,"Annualized rate of change in total RSA, non-dominant, annual percent change","subjects with FSHD [4]; weighted assessment, p=0.01",4.88%
same,"Annualized rate of change in total RSA, dominant, annual percent change","subjects with FSHD [4]; weighted assessment, p=0.07",0.28%
same,Progression in TUG time,subjects with FSHD [5],0.16 s
same,TUG time difference vs placebo,subjects with FSHD [5],0.58 s
same,FSHD-TUG vs placebo,subjects with FSHD [6],no difference
same,MFM total score vs placebo,subjects with FSHD [7],no difference
same,Safety and tolerability,subjects with FSHD [8],favorable safety and tolerability
